# Laboratory results: paper PMC9969401, “Discovery of 2-(3-Benzamidopropanamido)thiazole-5-carboxylate Inhibitors of the Kinesin HSET (KIFC1) and the Development of Cellular Target Engagement Probes” (Journal of Medicinal Chemistry, 2023)
# Key:
# [1] = tested on: centrosome-amplified (4NCA) DLD1 cells; assay: Multipolar spindle assay (4NCA cell line); type: cell-based, human
# Excerpt: (§1) The cellular models consisted of chromosomally stable human colon cancer DLD1 diploid (2N) and tetraploid (4N) cells, along with tetraploid centrosome -amplified (4NCA) DLD1 cells and DLD1 HSET knockout (KO) cells. DLD1 2N and 4N cells were generated and characterized as previously described.[27],[41],[42] In order to generate 4NCA cells, we used dihydro-cytochalasin B (DCB) to transiently block cytokinesis and induce tetraploidisation and centrosome amplification in DLD1 cells. Centrosome amplification in 4NCA cells is transient and therefore they were generated from 2N cells for each run of the assay.[27] The DLD1 HSET KO cells were knockout clones generated by CRISPR and validated by sequencing to have a homozygous deletion in the KIFC1 gene.
# (§2) Inhibition of HSET-mediated clustering was measured using a phenotypic assay measuring the formation of multipolar metaphase spindles in DLD1 cells with (4NCA) or without (4N) centrosome amplification. 4NCA cells were generated by treating 2N DLD1 cells with 2 μΜ DCB for 24 h, washed, and released in growth media for 24 h. 4N and 4NCA DLD1 cells were plated in 96-well ibidi μ-Clear plates (IB-89626, ibidi) with a no. 1.5 polymer coverslip bottom with optimal imaging properties. To enrich the mitotic population, cells were first treated for 3.5 h with 8 μM pro-TAME (I-440-01M, R&D system), an inhibitor of APC/C that transiently arrests cells in metaphase without affecting the structure of the spindle. Following the initial arrest, cells were treated with HSET compounds in the presence of 8 μM MG-132 (S2619, SelleckChem), a proteasome inhibitor that helps to maintain the metaphase arrest, where the number of spindle poles/cell can be optimally quantified by an automated segmentation analysis.
# (§3) Cells were then fixed in methanol and stained for 3 h for mitotic pole marker aurora A (1:1000 610939 mouse anti-IAK1, BD Biosciences) and phosphorylated histone H3 (1:1500 ab47297 anti-histone H3 pS10, Abcam) as a marker of mitotic cells in 1.5% FBS in PBS. Following primary antibody treatment, cells were incubated with secondary antibodies Alexa Fluor 488 goat antimouse and Alexa Fluor 555 goat antirabbit (1:1500, A11029 and A21429, respectively, Life Technologies) together with 1 μg/mL DAPI (D9542, Sigma) in 1.5% FBS in PBS. Image acquisition was performed at 10× using the GE INCELL 2200 High Content Imaging System (Cytiva) and analyzed using the InCell Investigator software. Mitotic cells were identified by high pHH3 staining and were scored as multipolar if they had more than two mitotic spindle poles. The percentage of multipolar mitoses was calculated by dividing the number of multipolar mitoses by the total of all visible mitoses in one well of a 96-well plate (n > 100 for each replicate, two replicates per concentration point).
# [2] = molecular target: T1, recombinant full-length HSET (Homo sapiens, UniProt Q9BW19); assay: ADP-Glo HSET assay (500 μM ATP); type: biochemical; settings: high ATP concentration of 500 μM; single determination or mean of two
# T1 construct: 5 nM full-length human N-terminal His-tag HSET; His-tag (N)
# T1 sequence (Q9BW19 1-673): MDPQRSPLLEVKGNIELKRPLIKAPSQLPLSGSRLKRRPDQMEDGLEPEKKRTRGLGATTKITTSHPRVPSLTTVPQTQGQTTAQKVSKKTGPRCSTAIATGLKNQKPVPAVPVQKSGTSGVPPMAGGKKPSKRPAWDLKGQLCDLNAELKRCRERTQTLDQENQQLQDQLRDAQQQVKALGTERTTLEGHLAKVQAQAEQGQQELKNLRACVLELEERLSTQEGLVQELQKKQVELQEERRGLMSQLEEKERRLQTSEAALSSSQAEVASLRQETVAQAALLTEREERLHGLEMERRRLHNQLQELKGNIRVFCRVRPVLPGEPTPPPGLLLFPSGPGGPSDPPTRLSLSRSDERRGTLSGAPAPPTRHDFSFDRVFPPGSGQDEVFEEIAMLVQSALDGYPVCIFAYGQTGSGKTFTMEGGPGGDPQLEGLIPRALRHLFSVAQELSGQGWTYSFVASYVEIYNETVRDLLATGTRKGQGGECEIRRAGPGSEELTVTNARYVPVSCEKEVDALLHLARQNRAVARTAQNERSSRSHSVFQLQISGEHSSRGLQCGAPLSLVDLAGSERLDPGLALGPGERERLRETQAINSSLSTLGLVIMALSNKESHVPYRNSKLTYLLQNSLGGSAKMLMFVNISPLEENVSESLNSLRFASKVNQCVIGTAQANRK
# Protocol: (§4) The HSET or Eg5 ATPase activity was measured using the ADP-Glo Kinase Assay kit (Promega, V9102). The assays were run using final concentrations of 5 nM full-length human N-terminal His-tag HSET or 4 nM GST-tagged Eg5 motor domain protein (Cytoskeleton, EG01) and an assay buffer containing 20 mM HEPES pH 6.8, 10 mM MgCl2, 0.25 mM EGTA, 0.4 mM Triton X-100, and 1 mM DTT. Preformed microtubules (Universal Biologicals Cambridge, bovine MT001-XL, or porcine MT002-XL), which were reconstituted in 15 mM PIPES pH 7, 1 mM MgCl2, and 20 μM paclitaxel, were present at a final assay concentration of 70 μg/mL. A reaction volume of 5 μL was used in Proxiplate 384 plus white assay plates (PerkinElmer, 6008280). To measure compound inhibition, 100 nL of compound dissolved in DMSO or DMSO alone was preincubated with the HSET and microtubules for 10 min before 3 μM Ultra-Pure ATP was added to start the ATPase reaction for the 3 μM ATP HSET assay. For the 500 μM ATP HSET assay, the addition of 500 μM Ultra-Pure ATP was used. For the Eg5 ATPase assay, 4.8 μM Ultra-Pure ATP was used. All reactions were incubated at 25 °C for 80 min and then stopped by the addition of 5 μL of the ADP-Glo reagent. 10 μL of Kinase Detection Reagent was then added after a further 45 min of incubation. The luminescence was read after 45 min on a PheraStar FSX plate reader (BMG Labtech). The data processing was performed using Dotmatics Studies software package. Percentage inhibition was determined based on normalization to high controls (0% inhibition, all reagents with 100 nL of DMSO alone) and low controls (100% inhibition […], without HSET). The IC50 values for each compound were determined using a four-parameter logistic curve fit of % inhibition versus concentration.
# [3] = molecular target: T2, GST-tagged Eg5 motor domain (Homo sapiens, UniProt P52732); assay: ADP-Glo Eg5 assay (4.8 μM ATP); type: biochemical; settings: preformed microtubules, 4.8 μM ATP (Table 4)
# T2 construct: 4 nM GST-tagged Eg5 motor domain protein (Cytoskeleton, EG01); purchased Cytoskeleton EG01
# T2 sequence (P52732 18-359 limits assumed): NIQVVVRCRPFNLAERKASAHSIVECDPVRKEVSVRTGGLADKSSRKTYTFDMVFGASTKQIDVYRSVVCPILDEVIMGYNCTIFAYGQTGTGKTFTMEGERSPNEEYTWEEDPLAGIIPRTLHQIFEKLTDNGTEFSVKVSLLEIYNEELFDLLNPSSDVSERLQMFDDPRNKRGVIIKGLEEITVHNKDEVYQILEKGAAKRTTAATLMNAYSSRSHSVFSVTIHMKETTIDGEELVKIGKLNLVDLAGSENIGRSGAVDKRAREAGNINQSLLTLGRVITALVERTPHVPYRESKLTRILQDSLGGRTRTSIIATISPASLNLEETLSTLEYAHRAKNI
# Protocol: as §4
# [4] = molecular target: T1, recombinant full-length HSET; assay: ADP-Glo HSET assay (3 μM ATP), microtubule-stimulated ATPase; type: biochemical; settings: for IC50: preformed microtubules, 3 μM ATP, read-out: HSET ADP-Glo IC50
# Protocol: as §4
# [5] = tested on: non-centrosome amplified DLD1 (4N) cells; assay: Multipolar spindle assay (4N cell line); type: cell-based, human
# Excerpt: as §1, §2, §3
# [6] = Kinetic aqueous solubility (KSol), HPLC-UV; type: physicochemical; settings: PBS buffer pH 7.4, 100 μM solution with 1% DMSO, HPLC with UV detection
# HSET in DLD1 4N cells = molecular target: T3, HSET in DLD1 4N cells (Homo sapiens, UniProt Q9BW19); assay: Click probe localization target engagement imaging in DLD1 4N cells; type: cell-based; settings: DLD1 4N cells treated with 40
# T3 construct: overlapped with the signal from the antibody-probed endogenous HSET protein; endogenous in cells; host or cells: DLD1 4N cells
# T3 sequence (Q9BW19 1-673): T1 sequence (Q9BW19 1-673)
# Protocol: (§5) The Cy-5 tetrazine dye selected for this experiment is not cell-permeable, thus fixation and permeabilization of cells were necessary prior to its addition. Experiments were conducted in DLD1 4N cells and, as a negative control, isogenic 2N DLD1 HSET KO cells in which HSET expression was prevented by the disruption of the HSET gene using CRISPR. Cells were treated first with proTAME for 2 h to accumulate mitotic events, followed by treatment with the TCO probe 40 for 45 min. The live cells were then fixed and permeabilized before treatment with the tetrazine-Cy5 dye and incubation to allow the IEDDA reaction to occur. Additionally, the cells were stained for the endogenous HSET protein using indirect immunofluorescence and imaged to observe the fluorescence from both the TCO probe and antibody-labeled HSET. […] A 3 μM concentration of the probe 40 gave an acceptable signal-to-noise ratio of around 2:1. Even under these optimal conditions, some residual uniform cytoplasmic Cy5 signal was observed within the cells. However, a clear Cy5 decoration of the mitotic spindle was seen, which overlapped with the signal from the antibody-probed endogenous HSET protein (Figures 2A and S6). […] We observed a 14–17-fold increase in signal in DLD1 4N cells treated with 40 relative to tetrazine-Cy5 alone. […] Comparing the intensity of click probe labeling coincident with the mitotic spindle in DLD1 4N cells to that in DLD1 HSET KO cells after both were treated with 40, we observed a twofold higher signal in the former.
# (§6) Direct target engagement of active inhibitor 36 was measured by calculating its capacity to displace the TCO-containing probe 40. 4N DLD1 cells and DLD1 HSET KO cells (negative control) were plated in 96-well ibidi μ-Clear plates (IB-89626, ibidi). Cells were first treated for 2 h with 8 μM pro-TAME (I-440–01M, R&D system) to accumulate mitotic cells and were then treated with 8 μM MG-132 (S2619, SelleckChem) and 3 μM 40, alone or together with active inhibitor 36 in DMEM media with 1% FBS for 45 min. Cells were then washed three times in DMEM, with the second wash being incubated for 10 min to ensure the optimal reduction of unspecific compound binding. After an additional PBS wash, cells were then fixed in 4% PFA/PBS (15670799, Thermo Scientific) prior to incubation with 400 nM tetraszine-Cy5 (CLK-015-05, Jena Biosciences) in 1.5% FBS/PBS for 10 min at room temperature. Cells were permeabilized by the addition of 0.5% TritonX-100/PBS for 5 min before being stained overnight for Pericentrin (1:1500 ab28144 mouse anti-PCNT, Abcam) and KIFC1 (1:1500 12313S rabbit anti-KIFC1, Cell Signaling Technologies). Secondary antibodies Alexa Fluor 488 donkey antirabbit and Alexa Fluor 555 donkey antimouse (1:1500, A21206 and A31570, respectively, Life Technologies) were added together with 1 μg/mL DAPI (D9542, Sigma) in 1.5% FBS in PBS.
# (§7) Plates were imaged at 40× using a Zeiss LSM980 confocal microscope with Airyscan 2. The subsequent analysis and quantification were performed using 3D image segmentation with the Arivis4D software. Mitotic cells were segmented by selecting for the highest density (integrated DAPI intensity/total volume), and the mitotic pole areas were segmented using the Pericentrin signal. The signal of the click probe (Cy5) and total KIFC1 (FITC) was measured on the mitotic pole area, and both were normalized to the control condition containing 40 probe alone. The ratio of probe per target (click probe pole integrated intensity signal/KIFC1 pole integrated intensity signal) was used to calculate the occupancy of the probe in the target protein and normalized to the control condition containing 40 probe alone (n > 100 for each replicate, two replicates per concentration point).
# DLD1 HSET KO cells = assay: Click probe localization imaging in DLD1 HSET KO cells (negative control); type: cell-based, human; settings: HSET nonexpressing (DLD1 HSET KO) cells
# Protocol: as §5, §6, §7
Compound,"% multipolarity above baseline @ 15 μM (4NCA cells) ([1]; 15 μM, 4NCA DLD1 cells (Table 4))","% multipolarity above baseline @ 15 μM (4NCA cells) ([1]; 15 µM, 4NCA cells, supplementary CSV)","increase in mitotic spindle multipolarity (4NCA) ([1]; 15 μM, centrosome-amplified (4NCA) DLD1 cell line)",IC50 [2],IC50 [3],ligand efficiency (LE) [4],lipophilic ligand efficiency (LLE) [4],LE ([4]; LE = −1.4Log(IC50 [M])/number of non-hydrogen atoms (Table 1)),LLE ([4]; LLE = −Log(IC50 [M]) – cLogP (MoKa) (Table 1)),IC50 ([4]; mean (±SD) n ≥ 3 (Table 4)),"IC50 ([4]; mean (±SD) n ≥ 3, >200 from a single determination (Table 1))","% Multipolarity above baseline @ 15 mM (4N cells) ([5]; 15 μM, 4N cells, supplementary CSV)","effect on multipolar mitoses (4N), in words ([5]; 15 μM, non-centrosome amplified DLD1 (4N) cell line)",% multipolarity above baseline @ 15 μM (4N cells) ([5]; 4N DLD1 cells (Table 4)),KSol data [6],fold increase in signal relative to tetrazine-Cy5 alone (HSET in DLD1 4N cells),"IC50 ([4]; mean (±SD) n ≥ 3 (37 n = 2, 38 single determination) (Table 3))",fold increase in signal relative to tetrazine-Cy5 alone (DLD1 HSET KO cells)
"CCOC(=O)c1sc(NC(=O)CCNC(=O)c2cccc(-c3nnn(C)n3)c2)nc1C [Compound 18, Ethyl 4-Methyl-2-(3-(3-(2-methyl-2H-tetrazol-5-yl)benzamido)propanamido)thiazole-5-carboxylate]",11%,11%,~10%,86 nM,> 200000 nM,0.34,5.4,0.34,5.4,27 nM,27 nM,0%,no increases in multipolar mitoses,0%,–,–,–,–
"CCCOC(=O)c1sc(NC(=O)C[C@H](CCCN(C)CC#CCNC(=O)O[C@@H]2CC/C=C/CCC2)NC(=O)c2cccc(-c3noc(C)n3)c2)nc1C [Compound 40, propyl 2-((S)-6-((4-(((((S,E)-Cyclooct-4-en-1-yl)oxy)carbonyl)amino)but-2-yn-1-yl)(methyl)amino)-3-(3-(5-methyl-1,2,4-oxadiazol-3-yl)benzamido)hexanamido)-4-methylthiazole-5-carboxylate]",–,–,–,–,–,–,–,–,–,–,–,–,–,–,1.1 µM,14–17 fold,39 nM,7–8 fold
